Patent US12031152B2, “Nutrient media for the production of slaughter-free meat” (Upside Foods, Inc., priority 2020, dated 2024)
Blank lines part the entries; values can stand above or below the molecule they belong to.

How the values were obtained:
[1] = ADI of trace elements and other components
Description: (§1) Several trace elements are essential to cell metabolism and growth. […] As a novel alternative to formulating trace elements directly, the present disclosure discloses the identification and testing of food-safe complexes that innately contain trace elements.

[2] = cited from earlier work; for Safe Reference Level for Human Dietary Intake: UL: Tolerable Upper Limit
[3] = Safety assessment framework: risk categorization of media components
Description: A safety assessment was conducted on each component of a given cell culture media under the procedure outlined below. […] Further overview of the categorical framework for ensuring that culture media components are safe and suitable for their intended use in meat production are outlined below according to their category designation. A list of media components used during meat production along with worst-case exposure estimates and relevant authoritative limits or published toxicological/safety data supporting their use is presented in Table 16. • Category 1: These cell culture media components are food ingredients/additives that are GRAS or permitted by federal regulation without limitation on use. Exemplary compounds in this category include innocuous ingredients such as sugars, pH buffers, water soluble vitamins, and common antioxidants such as tocopherols. • Category 2. These cell culture media components are common dietary nutrients and are anticipated to have GRAS status for food use or be permitted by regulation for addition to food. Examples of such compounds include most of the inorganic salts and macronutrients that are present within the cell culture media. […] In some instances, consideration of established safe levels (e.g., ADI, UL) derived from a relevant authoritative body (e.g., U.S. FDA, EFSA, JECFA, FSANZ, U.S. EPA) may be leveraged to support safety. If comparisons of anticipated dietary intakes relative to an authoritative reference intake value is used, consideration of additive intakes from all dietary sources may be considered. In the absence of an authoritative reference intake value, published NOAELs from animal toxicology studies may be used to evaluate safety using standard scientific procedures for food safety evaluation. A margin of exposure (MoE) of 100-fold or greater between the NOAEL and estimated dietary intakes from food exposures is typically considered adequate to support safety. In situations where the MoE is <100-fold, additional measures for further reduction of the media component may be necessary, or further characterization of intraspecies/interspecies differences in metabolism may be necessary. These situations also require careful consideration of the regulatory status on a case-by-case basis (e.g., premarket approval as a food additive or GRAS evaluation required). • Category 3. […] For Category 3 substances a final consideration in the safety assessment process may involve hazard characterization of the potential for a substance to produce toxic biological effects outside of the endpoints measured in a sub-chronic rat toxicity study. […] Considerations for allergenicity, biological effects in humans (e.g., effects on blood pressure), and synergistic effects with other media components also may be evaluated. […]

[4] = Margin between estimated intake of a 65 kg adult and rat NOAEL; conditions: 65 kg adult
Description: A safety assessment was conducted on each component of a given cell culture media under the procedure outlined below. […] Further overview of the categorical framework for ensuring that culture media components are safe and suitable for their intended use in meat production are outlined below according to their category designation. A list of media components used during meat production along with worst-case exposure estimates and relevant authoritative limits or published toxicological/safety data supporting their use is presented in Table 16. • Category 1: These cell culture media components are food ingredients/additives that are GRAS or permitted by federal regulation without limitation on use. Exemplary compounds in this category include innocuous ingredients such as sugars, pH buffers, water soluble vitamins, and common antioxidants such as tocopherols. • Category 2. These cell culture media components are common dietary nutrients and are anticipated to have GRAS status for food use or be permitted by regulation for addition to food. Examples of such compounds include most of the inorganic salts and macronutrients that are present within the cell culture media. […] In some instances, consideration of established safe levels (e.g., ADI, UL) derived from a relevant authoritative body (e.g., U.S. FDA, EFSA, JECFA, FSANZ, U.S. EPA) may be leveraged to support safety. If comparisons of anticipated dietary intakes relative to an authoritative reference intake value is used, consideration of additive intakes from all dietary sources may be considered. […] For Category 3 substances a final consideration in the safety assessment process may involve hazard characterization of the potential for a substance to produce toxic biological effects outside of the endpoints measured in a sub-chronic rat toxicity study. […] Considerations for allergenicity, biological effects in humans (e.g., effects on blood pressure), and synergistic effects with other media components also may be evaluated. […]

[5] = Maximum (worst-case) dietary exposure estimate per 100 g serving; conditions: assumes complete transfer of media components to the finished product on a wt/wt basis
Description: The average daily intake (ADI) is conventionally determined as a result of a safety factor of 100-fold below the experimentally derived No Observable Adverse Effect Limits (NOAEL) for an appropriate animal species for sub-chronic or acute exposure. […] The ADI is determined in an appropriately sensitive species, usually rodent, and it is reported as mg of substance/kg of animal body weight/24-hour period. Calculating the maximum theoretical concentration of each media compound in the final product is done by assuming 100% incorporation of the compound from the media into the product.
A safety assessment was conducted on each component of a given cell culture media under the procedure outlined below.

Adherent Gallus cells = assay: Cellular response to cis recombinant Gallus FGF-2 vs commercial human recombinant FGF-2; type: cell-based; conditions: growth factor at 10 μg/L and 100 μg/L, five days
Description: Adherent Gallus cells were thawed and seeded at a density of 5000 cells/cm^2 in a T25-flask. One medium was prepared according to standard media hydration protocols. Dry powder media was added to DI water in a clean vessel and allowed to stir until all components were dissolved. The pH and osmolality of the medium were adjusted to 7.4 and 300 mOsm/kg respectively. The medium was then filtered using a 0.22 μm PES filtration unit and stored at 4° C. until use. Prior to use, the medium was allowed to come up to room temperature. Cells were seeded in the inner wells of a 96-well cell culture plate. Wells were either seeded with one of two different FGF-2 growth factors, a recombinant Gallus FGF-2 produced as described in Example 5, or a commercially available recombinant human FGF-2, or without any growth factors. Each growth factor was seeded at two different concentrations, 10 μg/L or 100 μg/L. Test conditions were all seeded in triplicate at a density of 5000 cells/cm^2. Cells were incubated at 39° C. in 5% CO2 in a Biotek BioSpa Live Cell Analysis System (BioSpa) for five days. Cells were imaged every 12 hours using the BioSpa. Images were processed using BioTeck Gen5 Data Analysis software. Data was then exported and analyzed using Microsoft Excel and SAS JMP.

cells [6] = assay: Screening of cobalt compounds to replace cobalt chloride; type: cell-based; conditions: replacement of cobalt chloride
Description: Cobalt is an essential cofactor nutrient for many enzymatic pathways that contribute to metabolic and cellular function. Cobalt chloride is a commonly used source of cobalt in culture media. Cobalt chloride is strictly prohibited by the FDA for use in food. In order to find a suitable replacement, many cobalt compounds were screened. Eventually, Vitamin B12 in the form of cyanocobalamin, which contains bioavailable cobalt at its chiral center, was found. […] In some embodiments the method comprises removing cobalt chloride. In some embodiments the method comprises replacing cobalt chloride with cyanocobalamin (Vit B12).

cells [7] = conditions: FAC 0.5 mg/ml-50 mg/ml, up to 275 hours, vs cells without FAC
Description: as §1

ADI [1]: 5.14 mg/kg bw-day
Molecule: O=C(O)CCCCC1CCSS1 (racemic) [DL-ALPHA-LIPOIC ACID]

Molecule: CC(=O)Oc1c(C)c(C)c2c(c1C)CCC(C)(CCCC(C)CCCC(C)CCCC(C)C)O2 (racemic) [DL-ALPHA-TOCOPHEROL ACETATE]
Safe Reference Level for Human Dietary Intake: UL [2]: UL = 1000 mg/d

Molecule: Cc1c(C)c2c(c(C)c1O)CC[C@@](C)(CCC[C@H](C)CCC[C@H](C)CCCC(C)C)O2 [D-ALPHA-TOCOPHEROL]
Safe Reference Level for Human Dietary Intake: UL [2]: UL = 1000 mg/d

Molecule: N[C@@H](CCC(=O)[O-])C(=O)O.O.[Na+] [L-GLUTAMIC ACID MONOSODIUM H20]
Risk Assessment Category [3]: 2

Molecule: O=S(=O)([O-])[O-].[Mg+2] [MAGNESIUM SULFATE (ANHY)]
Safe Reference Level for Human Dietary Intake: UL (in words) ([2]; NS = not specified as no evidence of toxicity from excess intake known): No UL for food

Molecule: NCCO [MONOETHANOLAMINE]
Intakes below NOAEL ([4]; rat NOAEL): kg adult are 128 fold

Molecule: Cl.Cl.NCCCCN [PUTRESCINE-2HCl]
ADI [1]: 0.018 mg/kg bw-day

Molecule: [Cl-].[Rb+] [RUBIDIUM CHLORIDE]
ADI [1]: 0.051 mg/kg bw-day

Molecule: O.O.[Na+].[Na+].[O]=[Mo](=[O])([O-])[O-] [SODIUM MOLYBDATE-2H2O]
ADI [1]: 1.41 mg/kg bw-day

Molecule: O=P([O-])([O-])O.[Na+].[Na+] [SODIUM PHOSPHATE DIBASIC-ANHY]
Risk Assessment Category [3]: 1 | Maximum Estimated Exposure per 100 g serving [5]: 4.3 g

Molecule: O.O.O.O.O.O.O=C([O-])CCC(=O)[O-].[Na+].[Na+] [SODIUM SUCCINATE-2Na 6H20]
Intakes below NOAEL ([4]; NOAEL from 2 year rat study): are >1000 fold below

ADI [1]: 1.87 mg/kg bw-day
Molecule: O.O.O.O.O.O.[Cl-].[Cl-].[Sr+2] [STRONTIUM CHLORIDE HEXAHYDRATE]

Molecule: O=C(O)CCC(=O)O [SUCCINIC ACID]
Intakes below NOAEL ([4]; NOAEL from 2 year rat study): adult are 257-fold

ADI [1]: 83.1 mg/kg bw-day
Molecule: Cc1cn([C@H]2C[C@H](O)[C@@H](CO)O2)c(=O)[nH]c1=O [THYMIDINE SYNTHETIC, THYMIDINE]

Molecule: CCCCCCCC/C=C\CCCCCCCC(=O)OCCOCC(OCCO)C1OCC(OCCO)C1OCCO (stereo not shown) [TWEEN 80]
Safe Reference Level for Human Dietary Intake: ADI ([2]; Acceptable Daily Intake): ADI = 10 mg/kg bw/d

Molecule: C=C1CC[C@H](O)C/C1=C/C=C1\CCC[C@]2(C)[C@@H]([C@H](C)/C=C/[C@H](C)C(C)C)CC[C@@H]12 [VITAMIN D2 (ERGOCALCIFEROL), ERGOCALCIFEROL]
Safe Reference Level for Human Dietary Intake: UL [2]: UL = 100 ug/d

Molecule: CALCIUM D-PANTOTHENATE
Risk Assessment Category [3]: 1

Molecule: FERRIC CITRATE
Risk Assessment Category [3]: 2

Molecule: commercial human FGF-2: commercially available recombinant human FGF-2 [reference compound]
cellular response (Adherent Gallus cells): equivalent activity | cellular response (Adherent Gallus cells; listed as human recombinant FGF-2): equivalent response

Molecule: cyanocobalamin [VITAMIN B12 (CYANCOCOBALAMIN)]
supply of cobalt to promote cellular function (cells [6]): sufficiently supplied cobalt

Molecule: ferric ammonium citrate [FAC]
cell viability over time (cells [7]): maintain high viability over time

B1: cis Gallus FGF-2: recombinant Gallus FGF-2 produced in E. coli as described in Example 5 (protein, UniProt P48800 13-158, looked up)
Fibroblast growth factor 2: PALPDDGGGGAFPPGHFKDPKRLYCKNGGFFLRINPDGRVDGVREKSDPHIKLQLQAEERGVVSIKGVSANRFLAMKEDGRLLALKCATEECFFFERLESNNYNTYRSRKYSDWYVALKRTGQYKPGPKTGPGQKAILFLPMSAKS
cellular response (Adherent Gallus cells): equivalent activity | cellular response (Adherent Gallus cells; listed as cis recombinant Gallus FGF-2): equivalent response
